Source: ChEMBL document CHEMBL1201862, “PubChem BioAssay data set” (2004)
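Step 1: Grow cells in 96-well plates. Step 2: Expose to compound for 48 hours at 5 concentrations. Step 3: Interpolate endpoints linearly; if unreached, use highest concentration. GI50 = concentration required for 50% inhibition of growth.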 The source made the active and inactive calls. No stated cut-off is given here; in the data, active = GI50 up to about 1.1 µM and inactive = higher.

Legend:
Experiment in all cases: NCI-60 cell line screen, 48 h
OVCAR-3 = system: OVCAR-3
SF-539 = system: SF-539
NCI/ADR-RES = system: NCI/ADR-RES
Hs-578T = system: Hs-578T
SN12C = system: SN12C
SNB-75 = system: SNB-75
A498 = system: A498
IGROV-1 = system: IGROV-1
OVCAR-5 = system: OVCAR-5
OVCAR-8 = system: OVCAR-8
HL-60 = system: HL-60
KM12 = system: KM12
ACHN = system: ACHN
SK-MEL-28 = system: SK-MEL-28
K562 = system: K562
RXF 393 = system: RXF 393
SK-OV-3 = system: SK-OV-3
SW-620 = system: SW-620
CAKI-1 = system: CAKI-1
HCC 2998 = system: HCC 2998

| Structure (SMILES) | GI50 (OVCAR-3) | GI50 (SF-539) | GI50 (NCI/ADR-RES) | GI50 (Hs-578T) | GI50 (SN12C) | GI50 (SNB-75) | GI50 (A498) | GI50 (IGROV-1) | GI50 (OVCAR-5) | GI50 (OVCAR-8) | GI50 (HL-60) | GI50 (KM12) | GI50 (ACHN) | GI50 (SK-MEL-28) | GI50 (K562) | GI50 (RXF 393) | GI50 (SK-OV-3) | GI50 (SW-620) | GI50 (CAKI-1) | GI50 (HCC 2998) |
| --- | --- | --- | --- | --- | --- | --- | --- | --- | --- | --- | --- | --- | --- | --- | --- | --- | --- | --- | --- | --- |
| O=C(O)COc1c(Cl)cc(Cl)c2cccnc12 | > 100 µM (inactive) | > 100 µM (inactive) | > 100 µM (inactive) | > 100 µM (inactive) | > 100 µM (inactive) | > 100 µM (inactive) | > 100 µM (inactive) | 96.4 µM (inactive) | > 100 µM (inactive) | > 100 µM (inactive) | > 100 µM (inactive) | > 100 µM (inactive) | > 100 µM (inactive) | > 100 µM (inactive) | > 100 µM (inactive) | > 100 µM (inactive) | > 100 µM (inactive) | > 100 µM (inactive) | > 100 µM (inactive) | – |
| O=C(C#CP(=O)(O)c1ccccc1)c1ccccc1 | > 100 µM (inactive) | > 100 µM (inactive) | > 100 µM (inactive) | > 100 µM (inactive) | > 100 µM (inactive) | > 100 µM (inactive) | > 100 µM (inactive) | > 100 µM (inactive) | > 100 µM (inactive) | > 100 µM (inactive) | – | > 100 µM (inactive) | > 100 µM (inactive) | > 100 µM (inactive) | > 100 µM (inactive) | – | > 100 µM (inactive) | > 100 µM (inactive) | > 100 µM (inactive) | > 100 µM (inactive) |
| Clc1ccc(/N=c2\oc3ccccc3cc2-c2nc3ccccc3[nH]2)c(Cl)c1 | > 100 µM (inactive) | – | > 100 µM (inactive) | 34.2 µM (inactive) | – | – | – | > 100 µM (inactive) | > 100 µM (inactive) | > 100 µM (inactive) | > 100 µM (inactive) | > 100 µM (inactive) | 31 µM (inactive) | – | > 100 µM (inactive) | 18.6 µM (inactive) | 49.9 µM (inactive) | > 100 µM (inactive) | > 100 µM (inactive) | – |
| Cc1cc(Cl)nc(NC(=O)CSc2ccc(Cl)cc2)n1 | > 100 µM (inactive) | – | > 100 µM (inactive) | 77.6 µM (inactive) | > 100 µM (inactive) | – | 72.9 µM (inactive) | > 100 µM (inactive) | > 100 µM (inactive) | > 100 µM (inactive) | > 100 µM (inactive) | > 100 µM (inactive) | > 100 µM (inactive) | > 100 µM (inactive) | > 100 µM (inactive) | > 100 µM (inactive) | – | > 100 µM (inactive) | – | > 100 µM (inactive) |
| NC1=NC(c2ccc(Cl)cc2)N(c2ccc(S(N)(=O)=O)cc2)C(N)=N1 (stereo not given) | > 100 µM (inactive) | > 100 µM (inactive) | > 100 µM (inactive) | > 100 µM (inactive) | > 100 µM (inactive) | > 100 µM (inactive) | > 100 µM (inactive) | > 100 µM (inactive) | > 100 µM (inactive) | > 100 µM (inactive) | – | > 100 µM (inactive) | > 100 µM (inactive) | > 100 µM (inactive) | > 100 µM (inactive) | > 100 µM (inactive) | > 100 µM (inactive) | > 100 µM (inactive) | > 100 µM (inactive) | – |
| Cc1sc2c(c1C)C(=O)c1cccn1-2 | > 100 µM (inactive) | – | > 100 µM (inactive) | 37.7 µM (inactive) | 78.2 µM (inactive) | 35.2 µM (inactive) | 60 µM (inactive) | 64.7 µM (inactive) | > 100 µM (inactive) | > 100 µM (inactive) | – | > 100 µM (inactive) | > 100 µM (inactive) | > 100 µM (inactive) | 38.8 µM (inactive) | 59 µM (inactive) | > 100 µM (inactive) | 72.6 µM (inactive) | 85.7 µM (inactive) | > 100 µM (inactive) |
| C/C(=N\NC(N)=S)c1ccc2c(c1)Sc1ccccc1O2 | 1.02 µM (active) | 2.26 µM (inactive) | 2.55 µM (inactive) | 3.78 µM (inactive) | 3.34 µM (inactive) | 2.53 µM (inactive) | 2.59 µM (inactive) | – | 4.01 µM (inactive) | 2.48 µM (inactive) | 3.88 µM (inactive) | 4.19 µM (inactive) | 4.55 µM (inactive) | 3.81 µM (inactive) | 2.36 µM (inactive) | – | 4.11 µM (inactive) | 2.56 µM (inactive) | 1.04 µM (active) | 1.66 µM (inactive) |
| CC1=CC[C@H](C[C@H](C#CCCCC2OCCO2)O[Si](C(C)C)(C(C)C)C(C)C)C(=O)CC1 | > 100 µM (inactive) | – | > 100 µM (inactive) | > 100 µM (inactive) | > 100 µM (inactive) | > 100 µM (inactive) | > 100 µM (inactive) | > 100 µM (inactive) | > 100 µM (inactive) | > 100 µM (inactive) | – | > 100 µM (inactive) | > 100 µM (inactive) | > 100 µM (inactive) | > 100 µM (inactive) | > 100 µM (inactive) | > 100 µM (inactive) | > 100 µM (inactive) | > 100 µM (inactive) | > 100 µM (inactive) |
| CC(O)(c1ccccc1)c1nccc2ccccc12 (stereo not given) | 57.9 µM (inactive) | – | 43.7 µM (inactive) | 45.8 µM (inactive) | > 100 µM (inactive) | 53.7 µM (inactive) | 71.4 µM (inactive) | 37.8 µM (inactive) | 67.1 µM (inactive) | > 100 µM (inactive) | > 100 µM (inactive) | 36.4 µM (inactive) | > 100 µM (inactive) | > 100 µM (inactive) | 35.8 µM (inactive) | > 100 µM (inactive) | 96.6 µM (inactive) | 77.6 µM (inactive) | > 100 µM (inactive) | > 100 µM (inactive) |
| COC1=CC(=O)c2nc3ccccc3c3ccnc1c23 | 2.04 µM (inactive) | 2.92 µM (inactive) | 3.71 µM (inactive) | 5.48 µM (inactive) | 6.82 µM (inactive) | 9.89 µM (inactive) | – | 3.56 µM (inactive) | 12.5 µM (inactive) | 3.26 µM (inactive) | 2.38 µM (inactive) | 4.04 µM (inactive) | 3.42 µM (inactive) | 19.7 µM (inactive) | 3.37 µM (inactive) | 2.61 µM (inactive) | 26.9 µM (inactive) | 1.03 µM (active) | 14.3 µM (inactive) | 3.1 µM (inactive) |
| C=C1C(=O)C2(C)OC2(C)C1C(=O)O (stereo not given) | > 100 µM (inactive) | > 100 µM (inactive) | > 100 µM (inactive) | > 100 µM (inactive) | > 100 µM (inactive) | > 100 µM (inactive) | – | > 100 µM (inactive) | > 100 µM (inactive) | > 100 µM (inactive) | > 100 µM (inactive) | > 100 µM (inactive) | > 100 µM (inactive) | > 100 µM (inactive) | > 100 µM (inactive) | > 100 µM (inactive) | > 100 µM (inactive) | > 100 µM (inactive) | > 100 µM (inactive) | > 100 µM (inactive) |
| O=c1[nH]c(=O)n(COCc2ccccc2)cc1Nc1ccc(Br)cc1 | > 100 µM (inactive) | – | > 100 µM (inactive) | > 100 µM (inactive) | > 100 µM (inactive) | – | > 100 µM (inactive) | 0.51 µM (active) | > 100 µM (inactive) | – | > 100 µM (inactive) | > 100 µM (inactive) | > 100 µM (inactive) | > 100 µM (inactive) | > 100 µM (inactive) | 43.2 µM (inactive) | – | > 100 µM (inactive) | > 100 µM (inactive) | > 100 µM (inactive) |
| C=C(CCOC)CCC1CCCCC(=C)[C@H]1OC(C)=O (stereo not given in full) | > 100 µM (inactive) | > 100 µM (inactive) | 78.3 µM (inactive) | > 100 µM (inactive) | > 100 µM (inactive) | > 100 µM (inactive) | > 100 µM (inactive) | > 100 µM (inactive) | > 100 µM (inactive) | > 100 µM (inactive) | 50.7 µM (inactive) | > 100 µM (inactive) | > 100 µM (inactive) | > 100 µM (inactive) | > 100 µM (inactive) | – | > 100 µM (inactive) | > 100 µM (inactive) | > 100 µM (inactive) | – |
| O=Cc1cc([N+](=O)[O-])no1 | 40.6 µM (inactive) | – | 52.4 µM (inactive) | 46.6 µM (inactive) | 38.9 µM (inactive) | > 100 µM (inactive) | > 100 µM (inactive) | 59 µM (inactive) | 71.8 µM (inactive) | 41 µM (inactive) | 15.9 µM (inactive) | 18.7 µM (inactive) | – | > 100 µM (inactive) | 4.85 µM (inactive) | > 100 µM (inactive) | > 100 µM (inactive) | 14.8 µM (inactive) | > 100 µM (inactive) | 35.2 µM (inactive) |
| CC1(C)N=C(N)N=C(N)N1c1cccc(OCc2cccc([N+](=O)[O-])c2)c1 | 22.9 µM (inactive) | 17.6 µM (inactive) | > 100 µM (inactive) | > 100 µM (inactive) | 9.98 µM (inactive) | > 57 µM (inactive) | 99.5 µM (inactive) | 7.87 µM (inactive) | > 30.6 µM (inactive) | 99.8 µM (inactive) | 9.95 µM (inactive) | 17.1 µM (inactive) | > 100 µM (inactive) | > 55.2 µM (inactive) | 0.75 µM (active) | > 100 µM (inactive) | > 100 µM (inactive) | > 85.9 µM (inactive) | > 100 µM (inactive) | – |
| Cc1cc(-c2nc3ccccc3s2)ccc1NC(=O)[C@H](C)N | 11.4 µM (inactive) | – | 18.3 µM (inactive) | 24.3 µM (inactive) | 14.7 µM (inactive) | 12.5 µM (inactive) | 14.4 µM (inactive) | 4.38 µM (inactive) | 0.441 µM (active) | 17.9 µM (inactive) | – | 14.4 µM (inactive) | 13.6 µM (inactive) | 15.7 µM (inactive) | 6.95 µM (inactive) | 12.3 µM (inactive) | 14.9 µM (inactive) | 14.8 µM (inactive) | 11.3 µM (inactive) | 10.6 µM (inactive) |
